Here are results for 1 substance from article PMC11187126, “Structure and dynamics of the pyroglutamylated RF-amide peptide QRFP receptor GPR103” (Nature Communications, 2024).

Read-outs that look alike come from different tables or passages of the source. No end group written: not given here.

As usually defined, the EC50 is the concentration at which the effect is half-maximal. Read a high EC50 as weaker potency.

The experiment concerns the target T1, GPR103 T215^5.39A (Homo sapiens, UniProt Q96P65, T215A).
T1 construct: we used human full-length QRFPR-encoding plasmids; expressed in transfected cells; host or cells: HEK293 cells (HEK293A in the flow cytometry section), pCAGGS vector
T1 sequence (Q96P65 1-431 T215A): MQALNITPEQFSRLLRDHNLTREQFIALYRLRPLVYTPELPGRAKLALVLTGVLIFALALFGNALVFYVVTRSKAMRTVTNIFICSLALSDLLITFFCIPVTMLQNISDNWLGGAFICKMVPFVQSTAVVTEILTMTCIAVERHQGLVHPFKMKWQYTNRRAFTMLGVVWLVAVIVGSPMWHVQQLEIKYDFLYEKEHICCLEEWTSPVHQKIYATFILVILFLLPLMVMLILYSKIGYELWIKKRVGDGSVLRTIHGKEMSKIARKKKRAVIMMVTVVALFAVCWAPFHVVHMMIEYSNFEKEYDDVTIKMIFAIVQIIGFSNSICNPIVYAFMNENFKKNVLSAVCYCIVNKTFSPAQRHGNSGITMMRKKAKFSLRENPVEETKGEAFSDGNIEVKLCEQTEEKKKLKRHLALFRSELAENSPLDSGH
Put plainly: TGFα shedding assay; Exp. level WT (1:1). The format is cell-based. On the procedure:
For the TGFα shedding assay and the flow cytometry analysis, we used human full-length QRFPR-encoding plasmids. Specifically, GPR103 was N-terminally modified with an HA signal sequence followed by a FLAG epitope and then a flexible linker ([…]; the FLAG epitope is underlined) and inserted into the pCAGGS vector. Plasmid encoding GPR103 mutants were generated using Quickchange Site-Directed Mutagensis kit (Agilent).
The TGFα shedding assay was performed as described previously with minor modifications. Plasmid transfection was performed in a 6-well plate with a mixture of 500 ng (per well in a 6-well plate) AP-TGFα-encoding plasmid and 200 ng GPR103-encoding plasmid. After 1-day culture, the transfected cells were harvested by trypsinization, pelleted by centrifugation at 190 × g for 5 min, and washed once with 5 mM HEPES (pH 7.4)-containing Hank’s Balanced Salt Solution (HBSS). After centrifugation, the cells were resuspended in 8 mL of the HEPES-containing HBSS. The cell suspension was seeded in a 96-well culture plate (cell plate) at a volume of 90 μL (per well hereafter) and incubated in a 37 °C incubator with 5% CO2 for 30 min. […] After spinning the cell plates at 190 × g for 2 min, 80 μL of conditioned media was transferred to an empty 96-well plate (conditioned media (CM) plate). Then, 80 μL of AP reaction solution (10 mM p-nitrophenylphosphate (p-NPP), 120 mM Tris-HCl (pH 9.5), 40 mM NaCl, and 10 mM MgCl2) was dispensed into the cell plates and the CM plates. Absorbance at 405 nm of the plates was measured using a microplate reader (SpectraMax 340 PC384, Molecular Devices) before and after 1-h incubation at room temperature. Ligand-induced AP-TGFα release was calculated by subtracting spontaneous AP-TGFα release signal from ligand-induced AP-TGFα release signal. The AP-TGFα release signals were fitted to a four-parameter sigmoidal concentration–response curve, using the Prism 10 software (GraphPad Prism). For each replicate experiment, the pEC50 parameter (negative logarithmic values of EC50 values) of the individual GPR103 mutants were normalized to that of the wild-type GPR103 performed in parallel, and resulting ∆pEC50 values were used to denote ligand response activity of the mutants. […]
Exp. le vel: WT (1:5 0)Exp. le vel: WT (1:5 0)Exp. le vel: WT (1:5 0)Exp. le vel: WT (1:2 0)Exp. le vel: WT (1:2 0)Exp. le vel: WT (1:1 0) […]
L1 4N - t e r mA F2 5N - t e r mA I 2 6N - t e r mA Y 2 9N - t e r mA C 9 82 .5 7A T10 22 .6 1A Exp . l eve l: WT (1 :5)Exp . l evel : >WT (1 :1)Exp. le vel: WT (1:2 0)Exp. le vel: WT (1:2 0)Exp. le vel: WT (1:5 0)Exp . l eve l: WT (1 :1) […]
Exp. le vel: WT (1:1 0)Exp. le vel: WT (1:2 0) C 1 1 83 .2 5AExp. le vel: WT (1:5 0)Exp. le vel: WT (1:5 0)Exp. le vel: WT (1:2 0)Exp . l eve l: WT (1 :5) […]
Exp. le vel: WT (1:5 0)Exp. le vel: WT (1:1 0)Exp. le vel: WT (1:5 0) E203ECL2AExp . l evel : >WT (1 :1)Exp. le vel: WT (1:5 0)Exp. le vel: WT (1:5 0) […]
Exp . l eve l: WT (1 :1) F28Exp. le vel: WT (1:5 0) C 2 8 56 .4 7AExp. le vel: WT (1:2 0) WExp. le vel: WT (1:2 0) F28Exp. le vel: WT (1:5 0)Exp . l evel : >WT (1 :1) […]
Exp. le vel: WT (1:5 0)Exp. le vel: WT (1:5 0) C 3 2 77 .4 8AExp . l eve l: WT (1 :5)Exp . l evel : >WT (1 :1)Exp . l evel : >WT (1 :1) […]
Suppl eme nt ary Figure 1 | Mutational analysis of GPR103. […]
mutants. Data are presented as mean values ± SEM, normally n=3-5; dots), each performed in triplicate. b-d Cell-surface expression (b) and QRFP26-in-duced activation of GPR103 (c, d) were analyzed by the flow cytometry and the TGFα shedding assay, respectively. From the concentration–response curves (a), Emax (c) and ΔpEC50 (d) values relative to the wild type were calculated. Colors in the mutant bars indicate an expression level matching to that of titrated wild type. Statistical analyses were performed using the ordinary one-way ANOVA followed by Dunnett tests with the expression-matched […]

In the case of TSGPLGNLAEELNGYSRKKGGFSFRF-NH2 [QRFP26], the Emax runs as follows: (Exp. #1) 95.52 % WT; (Exp. #2) 99.37 % WT; (Exp. #3) 104.64 % WT; (mean, read-out: Emax) 99.8%; (n = 3, read-out: Emax) 103 ± 2.2%. In addition, where the note is “n = 3”, the EC50 is 6.46 nM.
